Assay results as given in ChEMBL document CHEMBL5625197, “The mystery of titan hunter: Rationalized striking of the MAPK pathway via Newly synthesized 6-Indolylpyridone-3-Carbonitrile derivatives” (Eur J Med Chem, 2023).

Tests used:
HCT-116 [1] = assay: cells; assay type: functional; conditions: Homo sapiens, HCT-116, 96 h, time 4 day, read-out: GI
Description: Growth inhibition of human HCT-116 cells at 10 uM incubated for 4 days by MTT assay relative to control

SR [2] = assay: cells; assay type: functional; conditions: Homo sapiens, 96 h, time 4 day, read-out: GI
Description: Growth inhibition of human SR cells at 10 uM incubated for 4 days by MTT assay relative to control

HOP-92 [3] = assay: cells; assay type: functional; conditions: Homo sapiens, HOP-92, 96 h, time 4 day, read-out: GI
Description: Growth inhibition of human HOP-92 cells at 10 uM incubated for 4 days by MTT assay relative to control

RXF 393 [4] = assay: cells; assay type: functional; conditions: Homo sapiens, RXF 393, 96 h, time 4 day, read-out: GI
Description: Growth inhibition of human RXF 393 cells at 10 uM incubated for 4 days by MTT assay relative to control

RXF 393 [5] = assay: Cytotoxicity against human RXF 393 cells assessed as cell growth inhibition incubated for 4 days by MTT assay; assay type: functional; conditions: RXF 393, 96 h, time 4 day
[6] = Cytotoxicity against human MRC5 cells assessed as cell growth inhibition incubated for 4 days by MTT assay
HOP-92 [7] = assay: Cytotoxicity against human HOP-92 cells assessed as cell growth inhibition incubated for 4 days by MTT assay; assay type: functional; conditions: HOP-92, 96 h, time 4 day
[8] = Selectivity index, ratio of GI50 for cytotoxicity against human HEK293 cells to GI50 for cytotoxicity against human RXF 393 cells
[9] = Selectivity index, ratio of GI50 for cytotoxicity against human MRC5 cells to GI50 for cytotoxicity against human HOP-92 cells
HCT-116 [10] = assay: Cytotoxicity against human HCT-116 cells assessed as cell growth inhibition incubated for 4 days by MTT assay; assay type: functional; conditions: HCT-116, 96 h, time 4 day
[11] = Cytotoxicity against human PCS-800-011 cells assessed as fold change in cell growth inhibition incubated for 4 days by MTT assay; assay type: toxicity, cell-based; conditions: pcs-800-011, 96 h, time 4 day
[12] = Selectivity index, ratio of GI50 for cytotoxicity against human PCS-800-011 cells to GI50 for cytotoxicity against human SR cells; assay type: toxicity, cell-based; conditions: PCS-800-011 cells versus SR cells, read-out: RatioGI50
SR [13] = assay: Cytotoxicity against human SR cells assessed as cell growth inhibition incubated for 4 days by MTT assay; assay type: functional; conditions: 96 h, time 4 day
[14] = Selectivity index, ratio of GI50 for cytotoxicity against human FHC cells to GI50 for cytotoxicity against human HCT-116 cells; assay type: toxicity, cell-based; conditions: FHC cells versus HCT-116 cells, read-out: RatioGI50
[15] = Cytotoxicity against human PCS-800-011 cells assessed as cell growth inhibition incubated for 4 days by MTT assay
[16] = Cytotoxicity against human FHC cells assessed as cell growth inhibition incubated for 4 days by MTT assay
[17] = Cytotoxicity against human HEK293 cells assessed as cell growth inhibition incubated for 4 days by MTT assay
[18] = target: Hepatocyte growth factor receptor (Homo sapiens, UniProt P08581); assay: Inhibition of c-Met (unknown origin)
HOP-92 [19] = assay: Induction of apoptosis in human HOP-92 cells assessed as fold change in PARP1 gene expression by RT-PCR analysis; assay type: functional
HOP-92 [20] = assay: Inhibition of cell migration in human HOP-92 cells incubated for 15 to 20 mins by crystal violet staining based trans-well assay relative to control; assay type: functional; conditions: time 15-20 min
HOP-92 [21] = assay: Induction of apoptosis in human HOP-92 cells assessed as total apoptotic rate by Annexin V/ PI staining based flow cytometry (reference value: 2.28 %); assay type: functional
HOP-92 [22] = assay: Inhibition of colony formation in human HOP-92 cells incubated for 24 hrs by crystal violet staining based assay relative to control; assay type: functional
HOP-92 [23] = assay: Induction of apoptosis in human HOP-92 cells assessed as fold change in caspase-3 gene expression by RT-PCR analysis; assay type: functional
HOP-92 [24] = assay: Inhibition of cell invasion in human HOP-92 cells incubated for 15 to 20 mins by crystal violet staining based trans-well assay relative to control; assay type: functional; conditions: time 15-20 min
HOP-92 [25] = assay: Induction of apoptosis in human HOP-92 cells assessed as fold change in ratio of Bax/Bcl-2 gene expression by RT-PCR analysis; assay type: functional
HOP-92 [26] = assay: Induction of cell cycle arrest in human HOP-92 cells assessed as accumulation of cells at G2/M phase (reference value: 15.6 %); assay type: functional
HOP-92 [27] = assay: Induction of apoptosis in human HOP-92 cells assessed as fold change in Bcl-2 gene expression by RT-PCR analysis; assay type: functional
HOP-92 [28] = assay: Induction of apoptosis in human HOP-92 cells assessed as fold change in Bax gene expression by RT-PCR analysis; assay type: functional
HOP-92 [29] = assay: Induction of cell cycle arrest in human HOP-92 cells assessed as cell aggregation (reference value: 1.77 %); assay type: functional
HOP-92 [30] = assay: Induction of apoptosis in human HOP-92 cells assessed as fold change in TNFR1 gene expression by RT-PCR analysis; assay type: functional
HOP-92 [31] = assay: Induction of cell cycle arrest in human HOP-92 cells assessed as cell debris (reference value: 2.18 %); assay type: functional
HOP-92 [32] = assay: Induction of apoptosis in human HOP-92 cells assessed as fold change in p53 gene expression by RT-PCR analysis; assay type: functional
HOP-92 [33] = assay: Induction of apoptosis in human HOP-92 cells assessed as late apoptotic rate by Annexin V/ PI staining based flow cytometry (reference value: 0.26 %); assay type: functional
HOP-92 [34] = assay: Induction of cell cycle arrest in human HOP-92 cells assessed as accumulation of cells at S phase (reference value: 29.57 %); assay type: functional
HOP-92 [35] = assay: Inhibition of cell migration in human HOP-92 cells assessed as fold decrease in cell count incubated for 15 to 20 mins by crystal violet staining based trans-well assay; assay type: functional; conditions: time 15-20 min
HOP-92 [36] = assay: Induction of apoptosis in human HOP-92 cells assessed as early apoptotic rate by Annexin V/ PI staining based flow cytometry (reference value: 0.42 %); assay type: functional
HOP-92 [37] = assay: Induction of apoptosis in human HOP-92 cells assessed as necrosis rate by Annexin V/ PI staining based flow cytometry (reference value: 1.6 %); assay type: functional
HOP-92 [38] = assay: Induction of apoptosis in human HOP-92 cells assessed as fold change in caspase-9 gene expression by RT-PCR analysis; assay type: functional
HOP-92 [39] = assay: Induction of cell cycle arrest in human HOP-92 cells assessed as accumulation of cells at G0/G1 phase (reference value: 54.83 %); assay type: functional
HOP-92 [40] = assay: Induction of apoptosis in human HOP-92 cells assessed as fold change in caspase-8 gene expression by RT-PCR analysis; assay type: functional

N#Cc1c(-c2cccc([N+](=O)[O-])c2)cc(-c2c[nH]c3ccccc23)[nH]c1=O
inhibition of growth at 10 µM (HCT-116 [1]): 6.36% | inhibition of growth at 10 µM (SR [2]): 18.1% | inhibition of growth at 10 µM (HOP-92 [3]): 9.93% | inhibition of growth at 10 µM (RXF 393 [4]): 16.9%

N#Cc1c(-c2ccccc2[N+](=O)[O-])cc(-c2c[nH]c3ccccc23)[nH]c1=O
inhibition of growth at 10 µM (HCT-116 [1]): 59.5% | inhibition of growth at 10 µM (SR [2]): 69% | inhibition of growth at 10 µM (HOP-92 [3]): 68.5% | inhibition of growth at 10 µM (RXF 393 [4]): 64.8%

N#Cc1c(-c2cccc(Cl)c2)cc(-c2c[nH]c3ccccc23)[nH]c1=O
inhibition of growth at 10 µM (HCT-116 [1]): 51.1% | inhibition of growth at 10 µM (SR [2]): 71.9% | inhibition of growth at 10 µM (HOP-92 [3]): 38.6% | inhibition of growth at 10 µM (RXF 393 [4]): 67.5%

N#Cc1c(-c2cccnc2)cc(-c2c[nH]c3ccccc23)[nH]c1=O
inhibition of growth at 10 µM (HCT-116 [1]): 9.94% | inhibition of growth at 10 µM (SR [2]): 13.2% | inhibition of growth at 10 µM (HOP-92 [3]): 13% | inhibition of growth at 10 µM (RXF 393 [4]): -0.69%

N#Cc1c(-c2cccc(Cl)c2Cl)cc(-c2c[nH]c3ccccc23)[nH]c1=O
GI50 (RXF 393 [5]): 16.1 µM | inhibition of growth at 10 µM (HCT-116 [1]): 81.7% | GI50 at 96 h [6]: 71.3 µM | inhibition of growth at 10 µM (SR [2]): 57.6% | GI50 (HOP-92 [7]): 15.4 µM | RatioGI50 [8]: 3.8 | RatioGI50 [9]: 4.62 | GI50 (HCT-116 [10]): 8.12 µM | fold change (FC) [11]: 4 | selectivity ratio [12]: 3.74 | GI50 (SR [13]): 22.3 µM | selectivity ratio [14]: 8.09 | GI50 at 96 h [15]: 83.4 µM | inhibition of growth at 10 µM (HOP-92 [3]): 77.8% | GI50 at 96 h [16]: 65.7 µM | inhibition of growth at 10 µM (RXF 393 [4]): 63.2% | GI50 at 96 h [17]: 61 µM

COc1cc(-c2cc(-c3c[nH]c4ccccc34)[nH]c(=O)c2C#N)ccc1O
inhibition of growth at 10 µM (HCT-116 [1]): 64.4% | inhibition of growth at 10 µM (SR [2]): 52.1% | inhibition of growth at 10 µM (HOP-92 [3]): 53.5% | inhibition of growth at 10 µM (RXF 393 [4]): 65%

N#Cc1c(-c2ccc(F)c(F)c2)cc(-c2c[nH]c3ccccc23)[nH]c1=O
inhibition of growth at 10 µM (HCT-116 [1]): 51% | inhibition of growth at 10 µM (SR [2]): 55.9% | inhibition of growth at 10 µM (HOP-92 [3]): 53.1% | inhibition of growth at 10 µM (RXF 393 [4]): 65.7%

N#Cc1c(-c2ccc(C(F)(F)F)cc2)cc(-c2c[nH]c3ccccc23)[nH]c1=O
inhibition of growth at 10 µM (HCT-116 [1]): 67.5% | inhibition of growth at 10 µM (SR [2]): 48.5% | inhibition of growth at 10 µM (HOP-92 [3]): 56.7% | inhibition of growth at 10 µM (RXF 393 [4]): 71.6%

N#Cc1c(-c2ccc(O)c(O)c2)cc(-c2c[nH]c3ccccc23)[nH]c1=O
inhibition of growth at 10 µM (HCT-116 [1]): 9.54% | inhibition of growth at 10 µM (SR [2]): 69.8% | inhibition of growth at 10 µM (HOP-92 [3]): 31.2% | inhibition of growth at 10 µM (RXF 393 [4]): 11%

N#Cc1c(-c2ccc(Cl)c(Cl)c2)cc(-c2c[nH]c3ccccc23)[nH]c1=O
GI50 (RXF 393 [5]): 16.6 µM | inhibition of growth at 10 µM (HCT-116 [1]): 76.5% | GI50 at 96 h [6]: 56.1 µM | inhibition of growth at 10 µM (SR [2]): 71.8% | GI50 (HOP-92 [7]): 3.44 µM | RatioGI50 [8]: 2.56 | RatioGI50 [9]: 16.3 | GI50 (HCT-116 [10]): 10.6 µM | fold change (FC) [11]: 3.5 | selectivity ratio [12]: 8.02 | GI50 (SR [13]): 9.17 µM | selectivity ratio [14]: 3.86 | GI50 at 96 h [15]: 73.6 µM | inhibition of growth at 10 µM (HOP-92 [3]): 73.3% | GI50 at 96 h [16]: 41 µM | inhibition of growth at 10 µM (RXF 393 [4]): 75.8% | GI50 at 96 h [17]: 42.6 µM

N#Cc1c(-c2ccccc2Cl)cc(-c2c[nH]c3ccccc23)[nH]c1=O
inhibition of growth at 10 µM (HCT-116 [1]): 47.6% | inhibition of growth at 10 µM (SR [2]): 90% | inhibition of growth at 10 µM (HOP-92 [3]): 55.1% | inhibition of growth at 10 µM (RXF 393 [4]): 51.3%

CCOc1ccn(-c2ccc(F)cc2)c(=O)c1C(=O)Nc1ccc(Oc2ccnc(N)c2Cl)c(F)c1 [BMS-777607]
IC50 [18]: 0.128 µM

COc1cccc2c1C(=O)c1c(O)c3c(c(O)c1C2=O)C[C@@](O)(C(=O)CO)C[C@@H]3O[C@H]1C[C@H](N)[C@H](O)[C@H](C)O1 [DOXORUBICIN]
fold change (FC) (HOP-92 [19]): 0.23 | inhibition (INH) (HOP-92 [20]): 73.54% | Activity (HOP-92 [21]): 52.49% | inhibition (INH) (HOP-92 [22]): 44.9% | fold change (FC) (HOP-92 [23]): 14.3 | inhibition (INH) (HOP-92 [24]): 41.96% | fold change (FC) (HOP-92 [25]): 21.4 | Activity (HOP-92 [26]): 29.74% | fold change (FC) (HOP-92 [27]): 0.31 | fold change (FC) (HOP-92 [28]): 6.62 | Activity (HOP-92 [29]): 2.15% | fold change (FC) (HOP-92 [30]): 0.24 | Activity (HOP-92 [31]): 2.44% | fold change (FC) (HOP-92 [32]): 6.97 | Activity (HOP-92 [33]): 26.57% | Activity (HOP-92 [34]): 21.73% | fold change (FC) (HOP-92 [35]): 3.8 | Activity (HOP-92 [36]): 16.64% | Activity (HOP-92 [37]): 9.28% | fold change (FC) (HOP-92 [38]): 12.4 | Activity (HOP-92 [39]): 48.53% | fold change (FC) (HOP-92 [40]): 4.36

CN[C@@H]1C[C@H]2O[C@@](C)([C@@H]1OC)n1c3ccccc3c3c4c(c5c6ccccc6n2c5c31)C(=O)NC4 [STAUROSPORINE]
GI50 (RXF 393 [5]): 0.95 µM
